Where “and” joins values, the source holds several entries; their conditions need not be identical. Identical values can stand only once.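 Results reflect a 48-hour exposure of cells in 96-well plates to compound at five concentrations. GI50 marks 50% less growth. The concentration for full growth arrest is given as TGI.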
Tests used:
Assay in all cases: growth of human tumour cells (NCI), 48 h
[1] = system: CCRF-CEM leukemia
[2] = system: HL-60(TB) leukemia
[3] = system: IGROV1 ovarian
[4] = system: K-562 leukemia
[5] = system: KM12 colon
[6] = system: SF-295 CNS
[7] = system: SF-539 CNS
[8] = system: SK-MEL-2 melanoma
[9] = system: U251 CNS
[10] = system: UACC-62 melanoma

| SMILES | TGI [1] | TGI [2] | TGI [3] | TGI [4] | TGI [5] | TGI [6] | TGI [7] | TGI [8] | TGI [9] | TGI [10] | GI50 [2] | GI50 [3] | GI50 [4] | GI50 [5] | GI50 [6] | GI50 [7] | GI50 [8] | GI50 [9] | GI50 [10] | GI50 [1] |
| --- | --- | --- | --- | --- | --- | --- | --- | --- | --- | --- | --- | --- | --- | --- | --- | --- | --- | --- | --- | --- |
| COc1cc(/C=C(\C#N)C(=O)c2ccccc2)ccc1O | > 100 µM | > 100 µM | > 100 µM | > 100 µM | > 100 µM | > 100 µM | > 100 µM | > 100 µM | > 100 µM | > 100 µM |  |  |  |  |  |  |  |  |  |  |
| COC1CC2CCC(C)C(O)(O2)C(=O)C(=O)N2CCCCC2C(=O)OC(C(C)CC2CCC(O)C(OC)C2)CC(=O)C(C)C=C(C)C(O)C(OC)C(=O)C(C)CC(C)/C=C/C=C/C=C1C (stereo not drawn) |  | 23.6 µM | 11.8 µM | 32.3 µM | 11.2 µM | 7.76 µM | 11 µM | 12.3 µM | 10 µM | 11.6 µM | 10.2 µM | < 0.005 µM | 4.94 µM | 3.47 µM | < 0.005 µM | < 0.005 µM | 5.19 µM | 0.0523 µM | 0.0265 µM |  |
| COC(=O)C1=C(C(=O)ON)C2C=CC1(C(Cc1ccccc1)Nc1ccccc1)O2 (stereo not drawn) | 16.9 µM | 10.1 µM | 3.49 µM |  | 30 µM | 26.7 µM | 23.7 µM | 24.4 µM | 27.2 µM | 6.66 µM | 2.89 µM | 1.87 µM |  | 15.1 µM | 13.8 µM | 11.5 µM | 11.6 µM | 14.2 µM | 2.24 µM | 2.23 µM |
| COc1cc(C)c(Cl)cc1C1=NN(c2ccc(S(N)(=O)=O)cc2)C(/C=C/c2ccccc2)C1 (stereo not drawn) | > 100 µM | 16 µM | 43.9 µM | > 100 µM | 14.8 µM | 13.6 µM | 17 µM | 8.75 µM | 11.3 µM | 19.4 µM | 3.6 µM | 4.15 µM | 5.29 µM | 3.4 µM | 3.17 µM | 4.26 µM | 3.24 µM | 3.12 µM | 3.77 µM | 4.34 µM |
| CN(C)c1ccc([O][Bi]([Cl])[Cl])cc1 |  |  | > 100 µM |  | > 100 µM | > 100 µM | > 100 µM | > 100 µM | > 100 µM | > 100 µM |  | > 100 µM |  | > 100 µM | > 100 µM | > 100 µM | > 100 µM | > 100 µM | > 100 µM |  |
| COC(=O)C(=O)OC1(C(C)=O)CC2(c3ccccc3)OC1(c1ccccc1)c1ccccc12 (stereo not drawn) | > 100 µM | > 100 µM | 41.4 µM | > 100 µM |  | 31.4 µM | 26.7 µM |  | 30.5 µM | 28.1 µM |  |  |  |  |  |  |  |  |  |  |
| COc1ncc(-c2ccc3nccc(-c4ccnnc4)c3c2)cc1NS(=O)(=O)c1ccc(F)cc1F | 0.706 µM and 4.04 µM | > 4.01 µM and 1.21 µM | 0.00752 µM and < 0.01 µM | > 100 µM | 1.53 µM and 1.58 µM | 0.0595 µM and 0.0299 µM | 0.0587 µM and 0.0468 µM | 0.227 µM and 0.15 µM | > 3.43 µM and 0.923 µM | 0.019 µM and 0.0263 µM | 0.0224 µM and < 0.01 µM | < 0.01 µM |  | 0.033 µM and 0.0302 µM | 0.00537 µM and < 0.01 µM | 0.00746 µM and < 0.01 µM | 0.0194 µM and < 0.01 µM | 0.0194 µM and < 0.0147 µM | 0.00217 µM and < 0.01 µM | 0.0333 µM and 0.0262 µM |
| Oc1ccccc1C=NCc1ccco1 | > 100 µM | > 100 µM | > 100 µM | > 100 µM | > 100 µM | > 100 µM | > 100 µM |  | > 100 µM | > 100 µM |  |  |  |  |  |  |  |  |  |  |
| O=c1nc2n(-c3ccc(Cl)cc3)c3ccc([N+](=O)[O-])cc3cc-2c(=O)[nH]1 | > 100 µM | > 100 µM |  | > 100 µM | 20 µM | 47.1 µM | 53.9 µM | > 100 µM | 88.7 µM | 28.6 µM | 9.55 µM |  | 32.6 µM | 5.06 µM | 19.8 µM | 22.5 µM | 55.1 µM | 8.15 µM | 11.8 µM | 9.37 µM |
| N#Cc1nc2c(S(=O)(=O)c3ccccc3)c(N)n(Cc3cccnc3)c2nc1C#N | > 100 µM | > 100 µM |  | > 100 µM | > 100 µM | 50.7 µM | 23.7 µM | > 100 µM | 33.6 µM | > 100 µM | 3.71 µM |  | > 100 µM | > 100 µM | 20.5 µM | 3.25 µM | > 100 µM | 9.35 µM | 20.7 µM | 3.86 µM |
| O=NNc1ccc(S(=O)(=O)c2ccccc2)cn1 | > 100 µM |  | > 100 µM | > 100 µM | > 100 µM | > 100 µM | > 100 µM | > 100 µM | > 100 µM | > 100 µM |  |  |  |  |  |  |  |  |  |  |
| O=C1c2cc3c(cc2-c2c1c1ccc(Cl)cc1c(=O)n2CCCNCCO)OCO3 | 1 µM | 1.08 µM |  | 0.355 µM | 2.61 µM | 1.38 µM | 1.35 µM | 3.54 µM | 1.4 µM | 1.6 µM | 0.0367 µM |  | 0.108 µM | 1.17 µM | 0.0378 µM | 0.242 µM | 1.97 µM | 0.0403 µM | 0.0427 µM | 0.0347 µM |
| CCC/C(=N/N=C(N)N)c1ccc(NC(=O)c2cc3cc(OC)ccc3[nH]2)cc1 |  |  | 56.9 µM |  | 4.78 µM | 25.8 µM | 30.8 µM | 38.9 µM | 25.1 µM | 35 µM |  | 20.2 µM |  | 2.28 µM | 10.5 µM | 8.65 µM | 18.3 µM | 6.35 µM | 14.7 µM |  |
| O=C1NC(=O)C2C(=O)NC(=O)C1C2(c1ccccc1)c1cc[nH]c1 (stereo not drawn) | > 100 µM | > 100 µM | > 100 µM | > 100 µM | > 100 µM | > 100 µM | > 100 µM | > 100 µM |  | > 100 µM |  |  |  |  |  |  |  |  |  |  |
| CC(=O)[CH-]C(=O)c1ccccc1.CC(=O)[CH-]C(=O)c1ccccc1.[Eu+3].[OH-].[OH3+] | > 100 µM | > 100 µM | > 100 µM | > 100 µM |  | > 100 µM | > 100 µM |  | > 100 µM | > 100 µM | > 100 µM | > 100 µM | > 100 µM |  | > 100 µM | > 100 µM |  | > 100 µM | > 100 µM | > 100 µM |
